# Reference: patent publication US5294724A, “4-hydroxytetrahydropyran-2-ones and the corresponding dihydroxycarboxylic acid derivatives, salts and esters and a process for their preparation” (priority 1989, dated 1994)
# What was measured:
# LDL [1] = conditions: cited from earlier work
# serum lipoproteins = experiment: Action on serum lipoproteins and other metabolic parameters of male rats in the subchronic test; type: in vivo; conditions: rat
# Experimental: 3) Action on serum lipoproteins and other metabolic parameters of male rats in the subchronic test
# Groups of male rats of the strain HOE: WISKf (SPF 71) having a starting weight of above 180 g received the test preparations daily in the morning (sodium salts of the dihydroxycarboxylic acids of the formula II) in polyethylene glycol 400 by stomach tube; the respective control group received only the vehicle. The last (7th) administration was carried out 24 hours before taking blood and sacrificing. There was free access to food and water during the experiment. 24 hours before taking blood, which wall carried out retroorbitally under slight ether anesthesia before and after the treatment period (i.e. on the 1st and 8th day), the food was withdrawn. Total cholesterol was determined in the serum of each individual animal [CHODPAP high performance method of Boehringer Mannheim], and, as a measure of the triglycerides, total glycerol was also determined analytically from the serum pool of all the animals of one group [GPO-PAP high performance method, Boehringer Mannheim].
# Immediately after taking blood, the animals were sacrificed by dislocation of the spine, and the relative liver weight, the change in body weight and the food consumption were determined.
# For the analysis of the serum lipoproteins, the serum of all the rats of one group was pooled. The serum lipoproteins were separated using the preparative ultracentrifuge.
# The following conditions were used for the separation of the fractions VLDL, LDL and HDL:
# The determination of the protein was carried out by the method of Lowry et al. [LOWRY O. H., ROSEBOROUGH, N.J., PARR, A. L. and RANDELL, R. J.: J. Biol. Chem. 193, 265 (1951)].
# LDL [2] = experiment: Inhibition of Cu2+-catalyzed LDL oxidation in vitro; type: biochemical, porcine; conditions: 5 μM Cu2+, 2 hours at 37° C., fluorescence 430 nm; read-out: IC50 (50% inhibition of LDL oxidation)
# Experimental: 6) Inhibition of Cu^2+ -catalyzed LDL oxidation in vitro LDL was isolated from porcine plasma which contained EDTA (1 mg/ml) by ultracentrifugation in salt solutions of NaCl/NaBr between the densities 1.019 and 1.063 g/ml (cf. R. J. Havel et al., J. Clin. Invest. 43, 1345 (1955)). LDL was then dialyzed against phosphate-buffered saline (160 mM NaCl, 10 mM NaH2 PO4), pH 7.4 and stored under nitrogen at 4° C. Before the oxidation process, the LDL fractions were diluted to a final protein concentration of 0.1 mg/ml using phosphate-buffered saline and 2.5 ml aliquot parts were pre-incubated under nitrogen with the test compounds (25 μl of ethanolic solution) for 1 hour at 37° C. (cf. McLean et al., Biochemistry 1989, 28, 321). For the Cu^2+ -catalyzed oxidation of LDL, 12.5 μl of a 1 mM CuSO4 solution were added to each sample, a 5 μM Cu^2+ concentration resulting. The incubation was carried out for 2 hours at 37° C. and in an air atmosphere. The fluorescence intensity was measured at 430 nm (excitation wavelength 365 nm) (cf. Steinbrecher, U. P., J. Biol. Chem. 1987, 262, 3603). […] In addition, the inhibition using a 10^-5 N concentration of the test compound is indicated in %.
# [3] = 30 mg/kg daily by stomach tube, 7 administrations
smiles,measurement,setting,value
"CC(C)(Sc1cc(C(C)(C)C)c(O)c(C(C)(C)C)c1)Sc1cc(C(C)(C)C)c(O)c(C(C)(C)C)c1 [probucol, reference compound]",oxidative modification of LDL in vivo,LDL [1],prevents oxidative modification of LDL
same,biliary cholesterol excretion,LDL [1]; in vivo,increases biliary cholesterol excretion
same,lowering of LDL and HDL,LDL [1]; in vivo,lowers both LDL and HDL
same,plasma cholesterol-lowering action compared with a potent cholesterol biosynthesis inhibitor (such as mevinolin),LDL [1]; in vivo,only poorly pronounced
same,rate of catabolism of LDL,LDL [1]; in vivo,increases the rate of catabolism of LDL
same,"Body weight, % changes in the mean value relative to starting",serum lipoproteins; [3],+5%
same,"Glycerol VLDL, % change compared to control",serum lipoproteins; [3],+24%
same,"Liver weight, % changes in the mean value relative to control",serum lipoproteins; [3],+5%
same,"Protein LDL, % change compared to control",serum lipoproteins; [3],-23%
same,"Protein VLDL, % change compared to control",serum lipoproteins; [3],-6%
same,"Total cholesterol HDL, % change compared to control",serum lipoproteins; [3],-11%
same,"Total cholesterol LDL, % change compared to control",serum lipoproteins; [3],-24%
same,"Total cholesterol VLDL, % change compared to control",serum lipoproteins; [3],+4%
same,Cholesterol HDL/LDL,"serum lipoproteins; 30 mg/kg daily, control standardization to 1.00",0.97
same,IC50,LDL [2],500 nM
